{"source": "patent US20200291018A1", "about": "“TAM KINASE INHIBITORS” (SYROS PHARMACEUTICALS, INC., priority 2017, published 2020)", "key": {"[1]": {"target": "T1, TYRO3 (Homo sapiens, UniProt Q06418)", "T1 sequence (Q06418 41-890)": "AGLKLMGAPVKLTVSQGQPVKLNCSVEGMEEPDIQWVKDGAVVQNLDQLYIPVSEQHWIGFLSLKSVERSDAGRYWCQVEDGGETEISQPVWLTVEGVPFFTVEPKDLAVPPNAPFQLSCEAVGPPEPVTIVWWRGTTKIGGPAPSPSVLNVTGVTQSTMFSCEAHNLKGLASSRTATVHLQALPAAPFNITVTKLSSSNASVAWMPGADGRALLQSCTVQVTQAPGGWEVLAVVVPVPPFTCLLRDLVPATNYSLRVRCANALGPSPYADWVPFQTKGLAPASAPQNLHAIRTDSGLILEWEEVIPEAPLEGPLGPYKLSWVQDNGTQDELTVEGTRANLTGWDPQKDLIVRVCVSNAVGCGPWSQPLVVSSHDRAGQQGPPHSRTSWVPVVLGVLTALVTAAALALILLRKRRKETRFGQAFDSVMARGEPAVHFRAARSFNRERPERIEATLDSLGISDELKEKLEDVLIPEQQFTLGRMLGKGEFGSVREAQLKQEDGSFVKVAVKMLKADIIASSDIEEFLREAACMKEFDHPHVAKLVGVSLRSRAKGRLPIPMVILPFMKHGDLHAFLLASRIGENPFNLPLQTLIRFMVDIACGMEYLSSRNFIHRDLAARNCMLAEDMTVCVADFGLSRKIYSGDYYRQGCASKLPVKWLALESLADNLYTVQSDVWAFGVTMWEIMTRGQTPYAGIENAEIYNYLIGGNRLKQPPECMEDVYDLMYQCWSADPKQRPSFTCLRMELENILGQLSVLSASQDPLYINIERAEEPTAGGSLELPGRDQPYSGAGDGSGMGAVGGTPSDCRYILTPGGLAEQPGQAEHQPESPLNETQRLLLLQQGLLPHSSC", "assay": "TR-FRET kinase activity assay, TYRO3", "assay_type": "biochemical", "settings": "ATP at Km, 60 minutes", "method_in_brief": "(§1)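 Steps: compound, enzyme and labeled peptide combined at RT (50 mM HEPES pH 7.5, 10 mM MgCl2, 1 mM DTT); ATP added at Km; 60 min reaction; EDTA quench; Eu-antibody development 30 min in darkness; TR-FRET measured and IC50 fitted.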"}, "[2]": {"target": "T2, MERTK (Homo sapiens, UniProt Q12866)", "T2 sequence (Q12866 21-999)": "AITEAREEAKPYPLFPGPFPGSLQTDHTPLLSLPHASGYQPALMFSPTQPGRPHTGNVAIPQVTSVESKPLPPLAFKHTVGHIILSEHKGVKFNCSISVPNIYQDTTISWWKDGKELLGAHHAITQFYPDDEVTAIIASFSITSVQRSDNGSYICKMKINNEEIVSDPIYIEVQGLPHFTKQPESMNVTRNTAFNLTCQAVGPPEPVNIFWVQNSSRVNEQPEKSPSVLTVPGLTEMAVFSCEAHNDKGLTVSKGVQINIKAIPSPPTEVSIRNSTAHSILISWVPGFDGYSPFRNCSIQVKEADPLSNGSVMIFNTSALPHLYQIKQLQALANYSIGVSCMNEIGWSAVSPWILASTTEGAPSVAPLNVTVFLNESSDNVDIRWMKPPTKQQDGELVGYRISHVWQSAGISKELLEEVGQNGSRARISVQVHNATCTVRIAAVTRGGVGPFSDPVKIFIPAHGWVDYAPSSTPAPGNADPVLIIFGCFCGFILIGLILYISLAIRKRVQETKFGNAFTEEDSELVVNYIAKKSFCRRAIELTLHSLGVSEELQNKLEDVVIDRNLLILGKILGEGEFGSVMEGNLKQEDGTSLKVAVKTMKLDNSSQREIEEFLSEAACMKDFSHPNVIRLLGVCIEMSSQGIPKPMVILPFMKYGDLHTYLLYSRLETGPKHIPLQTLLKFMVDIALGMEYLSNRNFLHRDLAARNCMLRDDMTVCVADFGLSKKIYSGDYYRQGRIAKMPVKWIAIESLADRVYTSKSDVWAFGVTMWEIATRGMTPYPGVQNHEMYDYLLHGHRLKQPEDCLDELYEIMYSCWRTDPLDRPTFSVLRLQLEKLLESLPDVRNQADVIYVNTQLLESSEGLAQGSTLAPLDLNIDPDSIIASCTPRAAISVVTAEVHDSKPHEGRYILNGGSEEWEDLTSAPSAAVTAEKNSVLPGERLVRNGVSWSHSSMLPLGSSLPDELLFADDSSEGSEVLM", "assay": "TR-FRET kinase activity assay, MERTK", "assay_type": "biochemical", "settings": "for IC50: TR-FRET activity assay, ATP at Km, 60 minutes, read-out: Mer IC50; for Mer/Flt3 ratio (FLT3 IC50/Mer IC50): ratio calculated as FLT3 IC50/Mer IC50", "method_in_brief": "as §1"}}, "data": [{"smiles": "CCC(CC)Nc1ncc2c(=O)n(C3CCNCC3)cc([C@H]3CC[C@H](O)CC3)c2n1", "note": "[Compound 120]", "values": [{"measurement": "IC50", "setting": "[1]", "value": "≤ 0.1", "unit": "µM"}, {"measurement": "IC50", "setting": "[2]", "value": "≤ 0.1", "unit": "µM"}, {"measurement": "Mer/Flt3 ratio (FLT3 IC50/Mer IC50)", "setting": "[2]", "value": "+++ (a ratio of >100)"}]}, {"smiles": "COC[C@H](C)Nc1ncc2c(OC3CCOCC3)ncc([C@H]3CC[C@H](O)CC3)c2n1", "note": "[Compound 122, (1S,4r)-4-(2-(((S)-1-methoxypropan-2-yl)amino)-5-((tetrahydro-2H-pyran-4-yl)oxy)pyrido[4,3-d]pyrimidin-8-yl)cyclohexan-1-ol]", "values": [{"measurement": "IC50", "setting": "[1]", "value": "0.1 to 1", "unit": "µM"}, {"measurement": "IC50", "setting": "[2]", "value": "≤ 0.1", "unit": "µM"}, {"measurement": "Mer/Flt3 ratio (FLT3 IC50/Mer IC50)", "setting": "[2]", "value": "+++ (a ratio of >100)"}]}, {"smiles": "CCCCNc1ncc2c(NC3CCOCC3)ncc([C@H]3CC[C@H](O)CC3)c2n1", "note": "[Compound 124]", "values": [{"measurement": "IC50", "setting": "[1]", "value": "≤ 0.1", "unit": "µM"}, {"measurement": "IC50", "setting": "[2]", "value": "≤ 0.1", "unit": "µM"}, {"measurement": "Mer/Flt3 ratio (FLT3 IC50/Mer IC50)", "setting": "[2]", "value": "+ (a ratio of >2.0 and <10)"}]}, {"smiles": "CCCCNc1ncc2c(OCCOC)ncc([C@H]3CC[C@H](O)CC3)c2n1", "note": "[Compound 125]", "values": [{"measurement": "IC50", "setting": "[1]", "value": "1 to 10", "unit": "µM"}, {"measurement": "IC50", "setting": "[2]", "value": "≤ 0.1", "unit": "µM"}, {"measurement": "Mer/Flt3 ratio (FLT3 IC50/Mer IC50)", "setting": "[2]", "value": "NS (a ratio of ≤2.0)"}]}, {"smiles": "CCC[C@H](C)Nc1ncc2c(=O)n(C3CCNCC3)cc([C@H]3CC[C@H](O)CC3)c2n1", "note": "[Compound 126]", "values": [{"measurement": "IC50", "setting": "[1]", "value": "≤ 0.1", "unit": "µM"}, {"measurement": "IC50", "setting": "[2]", "value": "≤ 0.1", "unit": "µM"}, {"measurement": "Mer/Flt3 ratio (FLT3 IC50/Mer IC50)", "setting": "[2]", "value": "+++ (a ratio of >100)"}]}, {"smiles": "COCCN1C(C)(C)CC(Oc2ncc([C@H]3CC[C@H](O)CC3)c3nc(N[C@@H](C)CC(F)(F)F)ncc23)CC1(C)C", "note": "[Compound 355]", "values": [{"measurement": "IC50", "setting": "[1]", "value": "≤ 0.1", "unit": "µM"}, {"measurement": "IC50", "setting": "[2]", "value": "≤ 0.1", "unit": "µM"}, {"measurement": "Mer/Flt3 ratio (FLT3 IC50/Mer IC50)", "setting": "[2]", "value": "+++ (a ratio of >100)"}]}, {"smiles": "Cc1ncc([C@H]2CC[C@H](O)CC2)c2nc(N[C@@H](C)CC(F)(F)F)ncc12", "note": "[Compound 356]", "values": [{"measurement": "IC50", "setting": "[1]", "value": "≤ 0.1", "unit": "µM"}, {"measurement": "IC50", "setting": "[2]", "value": "≤ 0.1", "unit": "µM"}, {"measurement": "Mer/Flt3 ratio (FLT3 IC50/Mer IC50)", "setting": "[2]", "value": "+++ (a ratio of >100)"}]}, {"smiles": "COC[C@H](C)Nc1ncc2c(O[C@H]3CCOC3)ncc([C@H]3CC[C@H](O)CC3)c2n1", "note": "[Compound 357]", "values": [{"measurement": "IC50", "setting": "[1]", "value": "0.1 to 1", "unit": "µM"}, {"measurement": "IC50", "setting": "[2]", "value": "≤ 0.1", "unit": "µM"}, {"measurement": "Mer/Flt3 ratio (FLT3 IC50/Mer IC50)", "setting": "[2]", "value": "+++ (a ratio of >100)"}]}, {"smiles": "COC[C@H](C)Nc1ncc2c(OC3CCOCC3)ncc(C3CCC(F)(F)CC3)c2n1", "note": "[Compound 358]", "values": [{"measurement": "IC50", "setting": "[1]", "value": "0.1 to 1", "unit": "µM"}, {"measurement": "IC50", "setting": "[2]", "value": "≤ 0.1", "unit": "µM"}, {"measurement": "Mer/Flt3 ratio (FLT3 IC50/Mer IC50)", "setting": "[2]", "value": "++ (a ratio of between 10 and 100)"}]}, {"smiles": "CCOc1ncc([C@H]2CC[C@H](O)CC2)c2nc(N[C@@H](C)CC(F)(F)F)ncc12", "note": "[Compound 359]", "values": [{"measurement": "IC50", "setting": "[1]", "value": "≤ 0.1", "unit": "µM"}, {"measurement": "IC50", "setting": "[2]", "value": "≤ 0.1", "unit": "µM"}, {"measurement": "Mer/Flt3 ratio (FLT3 IC50/Mer IC50)", "setting": "[2]", "value": "+++ (a ratio of >100)"}]}, {"smiles": "C[C@@H](CC(F)(F)F)Nc1ncc2c(O[C@H]3C[C@@H](O)C3)ncc([C@H]3CC[C@H](O)CC3)c2n1", "note": "[Compound 360]", "values": [{"measurement": "IC50", "setting": "[1]", "value": "≤ 0.1", "unit": "µM"}, {"measurement": "IC50", "setting": "[2]", "value": "≤ 0.1", "unit": "µM"}, {"measurement": "Mer/Flt3 ratio (FLT3 IC50/Mer IC50)", "setting": "[2]", "value": "+++ (a ratio of >100)"}]}, {"smiles": "COC[C@H](C)Nc1ncc2c(OC3CC(C)(C)N(C(C)=O)C(C)(C)C3)ncc([C@H]3CC[C@H](O)CC3)c2n1", "note": "[Compound 361]", "values": [{"measurement": "IC50", "setting": "[1]", "value": "0.1 to 1", "unit": "µM"}, {"measurement": "IC50", "setting": "[2]", "value": "≤ 0.1", "unit": "µM"}, {"measurement": "Mer/Flt3 ratio (FLT3 IC50/Mer IC50)", "setting": "[2]", "value": "+++ (a ratio of >100)"}]}, {"smiles": "COC[C@H](C)Nc1ncc2c(Nc3ccncc3)ncc([C@H]3CC[C@H](O)CC3)c2n1", "note": "[Compound 362]", "values": [{"measurement": "IC50", "setting": "[1]", "value": "0.1 to 1", "unit": "µM"}, {"measurement": "IC50", "setting": "[2]", "value": "≤ 0.1", "unit": "µM"}, {"measurement": "Mer/Flt3 ratio (FLT3 IC50/Mer IC50)", "setting": "[2]", "value": "+++ (a ratio of >100)"}]}, {"smiles": "COC[C@H](C)Nc1ncc2c(Nc3cccnc3)ncc([C@H]3CC[C@H](O)CC3)c2n1", "note": "[Compound 363]", "values": [{"measurement": "IC50", "setting": "[1]", "value": "≤ 0.1", "unit": "µM"}, {"measurement": "IC50", "setting": "[2]", "value": "≤ 0.1", "unit": "µM"}, {"measurement": "Mer/Flt3 ratio (FLT3 IC50/Mer IC50)", "setting": "[2]", "value": "+++ (a ratio of >100)"}]}, {"smiles": "C[C@@H](CC(F)(F)F)Nc1ncc2c(O[C@H]3C[C@H](O)C3)ncc([C@H]3CC[C@H](O)CC3)c2n1", "note": "[Compound 364]", "values": [{"measurement": "IC50", "setting": "[1]", "value": "≤ 0.1", "unit": "µM"}, {"measurement": "IC50", "setting": "[2]", "value": "≤ 0.1", "unit": "µM"}, {"measurement": "Mer/Flt3 ratio (FLT3 IC50/Mer IC50)", "setting": "[2]", "value": "+++ (a ratio of >100)"}]}]}
